Results: paper PMC10539361, “Allosteric modulation of the fish taste receptor type 1 (T1R) family by the extracellular chloride ion” (Scientific Reports, 2023)

How the values were obtained:
[1] = biological target: mfT1R2b/mfT1R3 T105E (Oryzias latipes, UniProt Q2MHK2+Q2MHK4, Q2MHK2:T105E); assay: cell-based; details: EC50, [Cl-]o=10 mM; unit inferred
Description: (§1) The buffers with lower Cl^− were prepared by progressively replacing NaCl, KCl, CaCl2 and MgCl2 in the buffer with gluconate equivalents[20]. The pH was adjusted to 7.4 with NaOH. Ligands were diluted with the assay buffers at the desired concentrations.
Measurements of the responses of the cells by cell-based assay based on the intracellular Ca^2+ mobilization were carried out as described previously with some modifications[20],[34],[46],[47]. Cell lines stably expressing T1R2, T1R3 and chimeric G-protein α-subunit, G16gust44[48], were constructed using the Flp-In pcDNA5/FRT complete system (Thermo Fisher Scientific, Waltham, MA, USA) described in our previous studies[34],[46]. […] Fluorescence changes (i.e., excitation at 485 nm and emission at 525 nm with a cutoff at 515 nm) were monitored at 2 s intervals. […] The response of each well was determined as ∆RFU (delta relative fluorescent units), which was calculated as (maximum fluorescent value)—(minimum fluorescent value). […] Dose‒response fitting curves were calculated by Prism 9 (GraphPad Software, San Diego, CA) using nonlinear regression (log(agonist) vs. response—variable slope), based on the integrated data from the several independent experiments.

[2] = system: mfT1R2b/mfT1R3; assay: Ca2+ mobilization dose-response assay, stable cells expressing mfT1R2b/mfT1R3 with G16gust44; details: 10 mM vs 141.4 mM Cl- buffer
Description: as §1
Measurements of the responses of the cells by cell-based assay based on the intracellular Ca^2+ mobilization were carried out as described previously with some modifications[20],[34],[46],[47]. […] The cells were seeded in 96-well plates (clear-bottomed CellBIND surface plate, Corning, Glendale, AZ, USA) coated with ε-poly-L-lysine (Cosmo Bio, Tokyo, Japan) at approximately 70,000 cells per well. After 20 h, the medium was removed and replaced with high Cl^− buffer. […] Fluorescence changes (i.e., excitation at 485 nm and emission at 525 nm with a cutoff at 515 nm) were monitored at 2 s intervals. […] The response of each well was determined as ∆RFU (delta relative fluorescent units), which was calculated as (maximum fluorescent value)—(minimum fluorescent value). […] Dose‒response fitting curves were calculated by Prism 9 (GraphPad Software, San Diego, CA) using nonlinear regression (log(agonist) vs. response—variable slope), based on the integrated data from the several independent experiments.

mfT1R2b/mfT1R3 T105E, sequence (Q2MHK2 entry or part of it T105E): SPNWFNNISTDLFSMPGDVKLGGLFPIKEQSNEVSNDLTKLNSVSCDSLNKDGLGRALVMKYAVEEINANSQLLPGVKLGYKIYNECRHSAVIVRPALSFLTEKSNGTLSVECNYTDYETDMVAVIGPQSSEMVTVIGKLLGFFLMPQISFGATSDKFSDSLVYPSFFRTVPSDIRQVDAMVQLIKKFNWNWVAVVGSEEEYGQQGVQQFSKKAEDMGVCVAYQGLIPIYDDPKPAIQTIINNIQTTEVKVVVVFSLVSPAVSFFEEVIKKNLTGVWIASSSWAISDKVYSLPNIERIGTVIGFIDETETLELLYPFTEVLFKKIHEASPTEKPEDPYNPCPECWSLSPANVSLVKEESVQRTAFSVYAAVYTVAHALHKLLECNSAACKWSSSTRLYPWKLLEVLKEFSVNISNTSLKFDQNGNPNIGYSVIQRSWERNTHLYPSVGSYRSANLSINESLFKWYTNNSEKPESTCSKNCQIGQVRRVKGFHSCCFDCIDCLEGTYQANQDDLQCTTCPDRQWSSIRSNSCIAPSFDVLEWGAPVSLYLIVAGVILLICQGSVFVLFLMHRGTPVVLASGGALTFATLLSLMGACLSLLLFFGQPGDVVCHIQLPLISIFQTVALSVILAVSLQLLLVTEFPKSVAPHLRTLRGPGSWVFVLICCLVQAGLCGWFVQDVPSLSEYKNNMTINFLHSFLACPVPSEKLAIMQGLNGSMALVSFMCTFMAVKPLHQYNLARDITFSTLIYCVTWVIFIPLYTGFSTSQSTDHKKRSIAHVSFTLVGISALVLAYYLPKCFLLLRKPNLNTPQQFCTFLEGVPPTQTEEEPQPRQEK
mfT1R2b/mfT1R3 T105E, sequence (Q2MHK4 entry or part of it): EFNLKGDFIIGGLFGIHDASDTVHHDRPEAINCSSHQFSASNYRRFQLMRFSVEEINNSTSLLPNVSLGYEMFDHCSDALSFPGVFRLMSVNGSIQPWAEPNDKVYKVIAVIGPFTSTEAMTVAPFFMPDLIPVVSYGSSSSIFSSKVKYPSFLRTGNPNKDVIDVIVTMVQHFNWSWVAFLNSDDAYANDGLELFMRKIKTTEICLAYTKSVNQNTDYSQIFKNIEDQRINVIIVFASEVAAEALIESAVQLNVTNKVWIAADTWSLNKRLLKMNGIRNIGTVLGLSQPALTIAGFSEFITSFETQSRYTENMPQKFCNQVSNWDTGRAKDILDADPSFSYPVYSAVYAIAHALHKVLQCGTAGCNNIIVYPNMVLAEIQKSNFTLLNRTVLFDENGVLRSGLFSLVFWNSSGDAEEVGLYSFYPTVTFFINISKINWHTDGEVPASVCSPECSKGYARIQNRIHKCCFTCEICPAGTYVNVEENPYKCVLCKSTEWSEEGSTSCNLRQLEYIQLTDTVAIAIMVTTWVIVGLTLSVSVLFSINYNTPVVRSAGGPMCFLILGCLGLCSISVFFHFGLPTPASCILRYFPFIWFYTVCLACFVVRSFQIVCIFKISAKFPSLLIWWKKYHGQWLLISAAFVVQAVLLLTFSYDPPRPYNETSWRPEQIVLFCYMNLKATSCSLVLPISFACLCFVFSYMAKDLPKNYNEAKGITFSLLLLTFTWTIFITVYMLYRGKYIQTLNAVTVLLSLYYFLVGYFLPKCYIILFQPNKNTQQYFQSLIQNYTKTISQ

In the case of `C[C@H](N)C(=O)O` [L-Ala, L-alanine], the EC50 [1] is reported as 11.4 mM and the “effect of anionic buffer composition on sensitivity” value [2] is reported as “hardly affected”.
